From patent US11124774B2, “Engineered liver tissues, arrays thereof, and methods of making the same” (Organovo, Inc., priority 2013, dated 2021) come the findings set out here.

The test system of the assay is bioprinted hepatic stellate cell tissues. Description: Stimulation of bioprinted hepatic stellate cell tissues with cytokine. It is filed as cell-based, human. The procedure:
FIG. 15 is a non-limiting example of stimulation of bioprinted hepatic stellate cell tissues with TGF-β1.
Cylindrical bio-ink comprising relevant heterogeneous (i.e., polytypic) cell populations were prepared. Physiologically-relevant populations (e.g., hepatic stellate cells (hSC) and human aortic endothelial cells (EC)) of cells were combined at specific ratios to generate proper bio-ink. Cells were maintained and propagated under standard laboratory conditions and cells were cultured in media either purchased from the same vendor as the cells, or media comprising components typically found in the primary literature to be conducive to standard cell culture practices for those particular cell types. Cell processing for bio-ink preparation was as follows: briefly, cells were liberated from standard tissue culture plastic by washing with cation-free phosphate buffered saline (PBS) and then exposed to 0.1-0.05% trypsin (Invitrogen). Liberated cells were then washed in serum-containing media, collected, counted, and combined in an appropriate ratio for the stimulation assay or experiment being conducted, and pelleted by centrifugation. Supernatant was then removed and the cell pellet was aspirated into a glass microcapillary, which was then submerged in complete media for approximately 15 to 20 minutes. This cylindrical bio-ink structure was then extruded into a non cell-adherent hydrogel mold, containing linear channels and held for 2 to 18 hours. Cylindrical bio-ink containing hSC:EC was then used to fabricate bioprinted tissue constructs and maintained and/or matured in a humidified chamber. Tissue segments were fabricated with initial dimensions of 1.25 mm×8 mm×0.25 mm (W×L×H). During the post-bioprinting maturation period some constructs were exposed to the cytokine TGF-β1 to elicit a tissue-specific response (see FIG. 15).
The bioprinted neotissues were then submerged in serum-containing complete cell culture media and placed in a standard humidified chamber, supplemented with 5% CO2 for maturation. The bioprinted neotissues were then cultured and stimulated with a relevant cytokine(s) for a predetermined period of time, formalin-fixed, harvested, and processed for standard histology and immunohistochemistry. The bioprinted tissues were evaluated for characteristics such as, but not limited to for tissue morphology, cell organization, extracellular matrix production, cell proliferation, cell viability, and construct integrity.
Cytokine stimulation was conducted by adding cytokine directly to the culture media and incubating the bioprinted tissues with the added protein to provide direct and prolonged cell access to the proper stimulus. […]

[1] abbreviates: 0-50 ng/mL, tissue sections of bioprinted hepatic stellate-containing tissues (FIG. 15E-H).

Turning to “TGF-β1: cytokine (transforming growth factor beta 1) used to elicit a tissue-specific response in bioprinted tissues”, under setting [1], the cell density result is listed as “dramatic decreases in cell density”, the “collagen deposition (Trichrome staining)” value is recorded as “increases in collagen deposition” and the construct size result is recorded as “increases”. In addition, where the note is “increasing concentrations 0, 1, 10, 50 ng/mL, bioprinted hepatic stellate cell sheets (FIG. 15A-D)”, the “tissue outgrowth formation (gross observation)” value is on record as “increases in tissue outgrowth formation”.
